Measured values published in patent publication US8937041B2, “Macrocyclic hepatitis C serine protease inhibitors” (AbbVie, Inc., priority 2010, dated 2015).

Legend:
[1] = target: recombinant HCV NS3 protease, genotype 1a (Hepatitis C virus genotype 1a, UniProt P27958); assay: biochemical; settings: genotype 1a NS3 protease; read-out: IC50 in a 1a enzyme assay
[2] = target: recombinant HCV NS3 protease, genotype 1b (Hepatitis C virus genotype 1b, UniProt Q9WMX2); assay: biochemical; settings: genotype 1b NS3 protease; read-out: IC50 in a 1b enzyme assay
HLM stability = format: in vitro ADME
[3] = tested on: HCV genotype 1a replicon (1a-H77); assay: microbe, parasite or virus in culture; format: cell-based; settings: Hepatitis C virus, read-out: EC50 in a replicon cell line assay in a 1a-H77 background
[4] = tested on: HCV genotype 1b replicon (1b-Con-1); assay: microbe, parasite or virus in culture; format: cell-based; settings: Hepatitis C virus, read-out: EC50 in a replicon cell line assay in a 1b-con1 background

recombinant HCV NS3 protease, genotype 1a, sequence (P27958 1027-1657, other chains not shown): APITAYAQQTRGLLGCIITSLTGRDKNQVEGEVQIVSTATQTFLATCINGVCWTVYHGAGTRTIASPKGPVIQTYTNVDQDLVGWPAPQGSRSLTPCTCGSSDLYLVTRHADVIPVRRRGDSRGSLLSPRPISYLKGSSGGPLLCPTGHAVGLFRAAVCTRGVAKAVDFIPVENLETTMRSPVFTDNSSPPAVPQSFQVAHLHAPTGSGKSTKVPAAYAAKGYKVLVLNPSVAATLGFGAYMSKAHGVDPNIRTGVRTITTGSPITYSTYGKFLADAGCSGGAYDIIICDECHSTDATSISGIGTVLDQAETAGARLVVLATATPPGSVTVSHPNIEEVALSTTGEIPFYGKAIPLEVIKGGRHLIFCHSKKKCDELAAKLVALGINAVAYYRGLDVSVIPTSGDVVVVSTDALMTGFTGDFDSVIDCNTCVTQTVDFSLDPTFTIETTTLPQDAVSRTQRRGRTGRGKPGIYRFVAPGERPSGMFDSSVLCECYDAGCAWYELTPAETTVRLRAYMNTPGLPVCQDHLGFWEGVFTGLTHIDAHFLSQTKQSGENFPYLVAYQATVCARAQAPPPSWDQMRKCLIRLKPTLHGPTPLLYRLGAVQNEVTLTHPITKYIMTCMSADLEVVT
recombinant HCV NS3 protease, genotype 1b, sequence (Q9WMX2 1027-1657, other chains not shown): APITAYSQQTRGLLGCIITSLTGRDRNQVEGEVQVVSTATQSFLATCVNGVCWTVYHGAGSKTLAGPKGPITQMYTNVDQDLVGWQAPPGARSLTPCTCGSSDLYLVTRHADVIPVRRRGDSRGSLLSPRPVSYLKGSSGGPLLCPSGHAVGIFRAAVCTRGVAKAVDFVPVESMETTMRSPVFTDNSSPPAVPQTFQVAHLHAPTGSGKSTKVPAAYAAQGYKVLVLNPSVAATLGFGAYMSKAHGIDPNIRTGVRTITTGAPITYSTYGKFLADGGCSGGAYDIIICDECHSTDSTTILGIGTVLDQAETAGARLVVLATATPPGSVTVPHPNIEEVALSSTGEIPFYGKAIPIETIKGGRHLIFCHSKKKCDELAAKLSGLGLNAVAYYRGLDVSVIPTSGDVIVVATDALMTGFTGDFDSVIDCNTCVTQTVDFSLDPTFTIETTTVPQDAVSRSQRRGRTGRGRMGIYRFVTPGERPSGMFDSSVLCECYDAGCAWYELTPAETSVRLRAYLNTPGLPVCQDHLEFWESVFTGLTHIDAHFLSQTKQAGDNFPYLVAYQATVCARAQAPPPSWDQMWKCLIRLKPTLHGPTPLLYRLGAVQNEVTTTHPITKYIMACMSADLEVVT

IC50 [1] [pM]	IC50 [2] [pM]	HLM stability value (HLM stability) [µL/min/mg]	Compound	EC50 [3] [pM]	EC50 [4] [pM]
500 to 1000	500 to 1000	–	CC(C)(C)OC(=O)N[C@H]1CCCCCC(F)(F)C[C@@H]2C[C@@]2(C(=O)NS(=O)(=O)C2CC2)NC(=O)[C@@H]2C[C@@H](Oc3nc4ccccc4nc3-c3ccccc3)CN2C1=O [Example 5, tert-butyl (2R,6S ,13aS,14aR,16aS)-14a-(cyclopropylsulfonylcarbamoyl)-12,12-difluoro-5,16-dioxo-2-(3-phenylquinoxalin-2-yloxy)octadecahydrocyclopropa[e]pyrrolo[1,2-a][1,4]diazacyclopentadecin-6-ylcarbamate]	–	–
–	–	< 50	Cc1cc(C(=O)N[C@H]2CCCCCC(F)(F)C[C@@H]3C[C@@]3(C(=O)NS(=O)(=O)C3CC3)NC(=O)[C@@H]3C[C@@H](Oc4nc5ccccc5nc4C)CN3C2=O)no1 [Example 4, N-((2R,6S,13aS,14aR,16aS)-14a-(cyclopropylsulfonylcarbamoyl)-12,12-difluoro-2-(3-methylquinoxalin-2-yloxy)-5,16-dioxooctadecahydrocyclopropa[e]pyrrolo[1,2-a][1,4]diazacyclopentadecin-6-yl)-5-methylisoxazole-3-carboxamide]	–	–
–	–	–	Cc1cc(C(=O)N[C@H]2CCCCCC(F)(F)C[C@@H]3C[C@@]3(C(=O)NS(=O)(=O)C3CC3)NC(=O)[C@@H]3C[C@@H](Oc4nc5ccccc5c5ccccc45)CN3C2=O)no1 [Example 18, N-((2R,6S,13aS,14aR,16aS)-14a-(cyclopropylsulfonylcarbamoyl)-12,12-difluoro-5,16-dioxo-2-(phenanthridin-6-yloxy)octadecahydrocyclopropa[e]pyrrolo[1,2-a][1,4]diazacyclopentadecin-6-yl)-5-methylisoxazole-3-carboxamide]	< 1000	< 1000
–	–	< 50	Cc1cc(C(=O)N[C@H]2CCCCCC(F)(F)C[C@@H]3C[C@@]3(C(=O)NS(=O)(=O)C3CC3)NC(=O)[C@@H]3C[C@@H](Oc4nc5ccccc5c5ccccc45)CN3C2=O)nn1C [Example 21, (2R,6S,13aS,14aR,16a5)-N-(cyclopropylsulfonyl)-6-(1,5-dimethyl-1H-pyrazole-3-carboxamido)-12,12-difluoro-5,16-dioxo-2-(phenanthridin-6-yloxy)octadecahydrocyclopropa[e]pyrrolo[1,2-a][1,4]diazacyclopentadecine-14a-carboxamide]	–	–
–	–	< 50	Cc1cnc(C(=O)N[C@H]2CCCCCC(F)(F)C[C@@H]3C[C@@]3(C(=O)NS(=O)(=O)C3CC3)NC(=O)[C@@H]3C[C@@H](Oc4nc5ccccc5c5ccccc45)CN3C2=O)cn1 [Example 20, (2R,6S,13aS,14aR,16aS)-N-(cyclopropylsulfonyl)-12,12-difluoro-6-(5-methylpyrazine-2-carboxamido)-5,16-dioxo-2-(phenanthridin-6-yloxy)octadecahydrocyclopropa[e]pyrrolo[1,2-a][1,4]diazacyclopentadecine-14a-carboxamide]	–	–
–	–	< 50	Cc1cc(C(=O)N[C@H]2CCCCCC(F)(F)C[C@@H]3C[C@@]3(C(=O)NS(=O)(=O)C3CC3)NC(=O)[C@@H]3C[C@@H](Oc4nc5ccccc5nc4-c4ccccc4)CN3C2=O)no1 [Example 6, N-((2R,6S,13aS,14aR,16aS)-14a-(cyclopropylsulfonylcarbamoyl)-12,12-difluoro-5,16-dioxo-2-(3-phenylquinoxalin-2-yloxy)octadecahydrocyclopropa[e]pyrrolo[1,2-a][1,4]diazacyclopentadecin-6-yl)-5-methylisoxazole-3-carboxamide]	–	–
100 to 500	< 100	< 50	Cn1ccc(C(=O)N[C@H]2CCCCCC(F)(F)C[C@@H]3C[C@@]3(C(=O)NS(=O)(=O)C3CC3)NC(=O)[C@@H]3C[C@@H](Oc4nc5ccccc5nc4-c4cc5ccccc5o4)CN3C2=O)n1 [Example 17, (2R,6S,13aS,14aR,16aS)-2-(3-(benzofuran-2-yl)quinoxaline-2-yloxy)-N-(cyclopropylsulfonyl)-12,12-difluoro-6-(1-methyl-1H-pyrazole-3-carboxamido)-5,16-dioxooctadecahydrocyclopropa[e]pyrrolo [1,2-a][1,4]diazacyclopentadecine-14a-carboxamide]	–	–
–	–	< 50	Cc1cc(C(=O)N[C@H]2CCCCCC(F)(F)C[C@@H]3C[C@@]3(C(=O)NS(=O)(=O)C3CC3)NC(=O)[C@@H]3C[C@@H](Oc4cnc5ccccc5n4)CN3C2=O)no1 [Example 2, N-((2R,6S,13aS,14aR,16aS)-14a-(cyclopropylsulfonylcarbamoyl)-12,12-difluoro-5,16-dioxo-2-(quinoxalin-2-yloxy)octadecahydrocyclopropa[e]pyrrolo[1,2-a][1,4]diazacyclopentadecin-6-yl)-5-methylisoxazole-3-carboxamide]	–	–
100 to 500	100 to 500	–	Cc1nc2ccccc2nc1O[C@@H]1C[C@H]2C(=O)N[C@]3(C(=O)NS(=O)(=O)C4CC4)C[C@H]3CC(F)(F)CCCCC[C@H](NC(=O)OC(C)(C)C)C(=O)N2C1 [Example 3, tert-butyl (2R,6S,13aS,14aR,16aS)-14a-(cyclopropylsulfonylcarbamoyl)-12,12-difluoro-2-(3-methylquinoxalin-2-yloxy)-5,16-dioxooctadecahydrocyclopropa[e]pyrrolo[1,2-a][1,4]diazacyclopentadecin-6-ylcarbamate]	–	–
> 1000	> 1000	50 to 100	CC(C)(C)OC(=O)N[C@H]1CCCCCC(F)(F)C[C@@H]2C[C@@]2(C(=O)NS(=O)(=O)C2CC2)NC(=O)[C@@H]2C[C@@H](Oc3cnc4ccccc4n3)CN2C1=O [Example 1, tert-butyl(2R,6S,13aS,14aR,16aS)-14a-(cyclopropylsulfonylcarbamoyl)-12,12-difluoro-5,16-dioxo-2-(quinoxalin-2-yloxy)octadecahydrocyclopropa[e]pyrrolo[1,2-a][1,4]diazacyclopentadecin-6-ylcarbamate]	–	–
100 to 500	100 to 500	–	Cc1cc(C(=O)N[C@H]2CCCCCC(F)(F)C[C@@H]3C[C@@]3(C(=O)NS(=O)(=O)C3CC3)NC(=O)[C@@H]3C[C@@H](Oc4nc5ccccc5nc4-c4cc5ccccc5o4)CN3C2=O)no1 [Example 16, N-((2R,6S,13aS,14aR,16aS)-2-(3-(benzofuran-2-yl)quinoxaline-2-yloxy)-14a-(cyclopropylsulfonylcarbamoyl)-12,12-difluoro-5,16-dioxooctadecahydrocyclopropa[e]pyrrolo[1,2-a][1,4]diazacyclopentadecin-6-yl)-5-methylisoxazole-3-carboxamide]	–	–

Compound	IC50 [1] [pM]	IC50 [2] [pM]	HLM stability value (HLM stability) [µL/min/mg]	EC50 [3] [pM]	EC50 [4] [pM]
CCc1nc2ccccc2nc1O[C@@H]1C[C@H]2C(=O)N[C@]3(C(=O)NS(=O)(=O)C4CC4)C[C@H]3CC(F)(F)CCCCC[C@H](NC(=O)c3cc(C)on3)C(=O)N2C1 [Example 9, N-((2R,6S ,13aS,14aR,16aS)-14a-(cyclopropylsulfonylcarbamoyl)-2-(3-ethylquinoxalin-2-yloxy)-12,12-difluoro-5,16-dioxooctadecahydrocyclopropa[e]pyrrolo[1,2-a][1,4]diazacyclopentadecin-6-yl)-5-methylisoxazole-3-carboxamide]	500 to 1000	100 to 500	< 50	2000 to 5000	1000 to 2000
Cc1cc(C(=O)N[C@H]2CCCCCC(F)(F)C[C@@H]3C[C@@]3(C(=O)NS(=O)(=O)C3CC3)NC(=O)[C@@H]3C[C@@H](Oc4nc5ccccc5nc4-c4nc5ccccc5s4)CN3C2=O)no1 [Example 14, N-((2R,6S,13aS,14aR,16aS)-2-(3-(benzo[d]thiazol-2-yl)quinoxalin-2-yloxy)-14a-(cyclopropylsulfonylcarbamoyl)-12,12-difluoro-5,16-dioxooctadecahydrocyclopropa[e]pyrrolo [1,2-a][1,4]diazacyclopentadecin-6-yl)-5-methylisoxazole-3-carboxamide]	100 to 500	100 to 500	< 50	2000 to 5000	1000 to 2000
CCc1nc2ccccc2nc1O[C@@H]1C[C@H]2C(=O)N[C@]3(C(=O)NS(=O)(=O)C4CC4)C[C@H]3CC(F)(F)CCCCC[C@H](NC(=O)C(C)(C)C)C(=O)N2C1 [Example 12, (2R,6S,13aS,14aR,16a5)-N-(cyclopropylsulfonyl)-2-(3-ethylquinoxalin-2-yloxy)-12,12-difluoro-5,16-dioxo-6-pivalamidooctadecahydrocyclopropa[e]pyrrolo[1,2-a][1,4]diazacyclopentadecine-14a-carboxamide]	500 to 1000	500 to 1000	< 50	> 5000	> 5000
CCc1nc2ccccc2nc1O[C@@H]1C[C@H]2C(=O)N[C@]3(C(=O)NS(=O)(=O)C4CC4)C[C@H]3CC(F)(F)CCCCC[C@H](NC(=O)c3ccon3)C(=O)N2C1 [Example 11, N-((2R,6S ,13aS,14aR,16aS)-14a-(cyclopropylsulfonylcarbamoyl)-2-(3-ethylquinoxalin-2-yloxy)-12,12-difluoro-5,16-dioxooctadecahydrocyclopropa[e]pyrrolo[1,2-a][1,4]diazacyclopentadecin-6-yl)isoxazole-3-carboxamide]	100 to 500	100 to 500	< 50	> 5000	2000 to 5000
CCc1nc2ccccc2nc1O[C@@H]1C[C@H]2C(=O)N[C@]3(C(=O)NS(=O)(=O)C4(C)CC4)C[C@H]3CC(F)(F)CCCCC[C@H](NC(=O)c3cc(C)on3)C(=O)N2C1 [Example 10, N-((2R,6S,13aS,14aR,16aS)-2-(3-ethylquinoxalin-2-yloxy)-12,12-difluoro-14a-(1-methylcyclopropylsulfonylcarbamoyl)-5,16-dioxooctadecahydrocyclopropa[e]pyrrolo [1,2-a][1,4]diazacyclopentadecin-6-yl)-5-methylisoxazole-3-carboxamide]	–	–	< 50	2000 to 5000	1000 to 2000
